For one test, the target named is FLT3-ITD (Homo sapiens (Human), UniProt P36888, INS600HVDFREYEYD). The test can be described thus: pFLT3 MSD assay, Ba/F3 FLT3-ITD. The format is cell-based. Conditions: Ba/F3 FLT3-ITD cells, 2 hours, read-out: BaF3-FLT3-ITD pFlt3 IC50.
For another test, the target named is KIT kinase (Homo sapiens (Human), UniProt P10721). As to the kind of experiment: Competition binding assay (Kd), KIT. Conditions: competition binding assay. In a few lines: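 Kinase, as T7 phage fusion or HEK-293-expressed DNA-tagged protein, competed off immobilised ligand beads by test compound (eleven-point threefold dilutions, from 100× DMSO stocks). Eluted kinase quantified by qPCR to derive Kd; DMSO used as control.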

The target of the next test is FLT3 kinase (Homo sapiens (Human), UniProt P36888). As to the kind of experiment: Competition binding assay (Kd), FLT3. Conditions: competition binding assay.

Consider 22 compounds from patent US9725465B2, “Biaryl acetamide compounds and methods of use thereof” (Ambit Biosciences Corporation, priority 2013, dated 2017).

Each structure is given as a SMILES string. Some results are limits rather than exact numbers.

FLT3 kinase, sequence (P36888 27-993): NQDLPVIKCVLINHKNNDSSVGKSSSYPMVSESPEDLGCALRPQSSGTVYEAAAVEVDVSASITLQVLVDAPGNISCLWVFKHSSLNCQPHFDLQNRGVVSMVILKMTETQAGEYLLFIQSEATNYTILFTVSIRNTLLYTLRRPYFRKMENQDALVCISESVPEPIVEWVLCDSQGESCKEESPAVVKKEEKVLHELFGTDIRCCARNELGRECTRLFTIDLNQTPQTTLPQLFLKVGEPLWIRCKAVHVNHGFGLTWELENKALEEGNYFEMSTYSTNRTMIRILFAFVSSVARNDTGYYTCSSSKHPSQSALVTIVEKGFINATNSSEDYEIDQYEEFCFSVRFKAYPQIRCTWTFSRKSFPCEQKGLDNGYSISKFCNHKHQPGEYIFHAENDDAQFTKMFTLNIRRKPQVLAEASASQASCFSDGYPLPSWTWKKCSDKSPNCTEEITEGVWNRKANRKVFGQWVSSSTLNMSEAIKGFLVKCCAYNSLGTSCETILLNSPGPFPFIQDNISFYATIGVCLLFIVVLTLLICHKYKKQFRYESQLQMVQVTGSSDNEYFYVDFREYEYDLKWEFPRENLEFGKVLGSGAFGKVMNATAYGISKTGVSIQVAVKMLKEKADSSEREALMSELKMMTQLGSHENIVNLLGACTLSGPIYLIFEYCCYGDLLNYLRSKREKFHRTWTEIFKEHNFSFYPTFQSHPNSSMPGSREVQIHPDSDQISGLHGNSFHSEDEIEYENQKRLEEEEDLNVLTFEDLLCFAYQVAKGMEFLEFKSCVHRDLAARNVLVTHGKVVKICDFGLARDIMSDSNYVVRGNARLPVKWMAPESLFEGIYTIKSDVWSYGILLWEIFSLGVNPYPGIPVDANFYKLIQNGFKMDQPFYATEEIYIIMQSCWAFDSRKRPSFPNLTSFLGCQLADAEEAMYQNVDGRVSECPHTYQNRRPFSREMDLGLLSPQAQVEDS
KIT kinase, sequence (P10721 26-976): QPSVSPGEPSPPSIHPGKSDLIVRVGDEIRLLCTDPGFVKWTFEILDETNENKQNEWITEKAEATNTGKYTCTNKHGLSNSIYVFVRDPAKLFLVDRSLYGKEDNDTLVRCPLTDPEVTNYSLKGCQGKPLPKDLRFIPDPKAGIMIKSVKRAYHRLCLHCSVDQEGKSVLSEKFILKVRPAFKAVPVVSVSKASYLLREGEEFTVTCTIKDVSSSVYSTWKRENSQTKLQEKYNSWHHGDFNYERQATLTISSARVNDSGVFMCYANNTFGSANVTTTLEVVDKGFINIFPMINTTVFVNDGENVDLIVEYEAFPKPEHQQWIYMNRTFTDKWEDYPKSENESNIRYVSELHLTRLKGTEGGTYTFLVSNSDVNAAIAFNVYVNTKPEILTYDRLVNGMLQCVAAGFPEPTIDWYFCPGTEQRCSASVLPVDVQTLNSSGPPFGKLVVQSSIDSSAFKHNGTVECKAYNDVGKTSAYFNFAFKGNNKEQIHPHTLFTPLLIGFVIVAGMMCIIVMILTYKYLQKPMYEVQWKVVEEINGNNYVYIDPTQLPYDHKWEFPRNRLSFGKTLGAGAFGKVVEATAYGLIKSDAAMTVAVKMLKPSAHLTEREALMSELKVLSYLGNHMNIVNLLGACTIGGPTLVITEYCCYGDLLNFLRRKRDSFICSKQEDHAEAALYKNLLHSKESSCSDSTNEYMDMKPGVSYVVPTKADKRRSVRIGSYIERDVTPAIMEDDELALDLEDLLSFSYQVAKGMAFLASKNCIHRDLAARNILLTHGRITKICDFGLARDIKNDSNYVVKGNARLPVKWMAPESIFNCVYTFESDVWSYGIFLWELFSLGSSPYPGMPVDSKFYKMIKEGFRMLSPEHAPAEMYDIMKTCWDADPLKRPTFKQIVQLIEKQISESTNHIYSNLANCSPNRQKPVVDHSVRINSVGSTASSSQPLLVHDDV
FLT3-ITD, sequence (P36888 other isoform, or with tags, fused parts or gaps limits assumed, stated change not applied): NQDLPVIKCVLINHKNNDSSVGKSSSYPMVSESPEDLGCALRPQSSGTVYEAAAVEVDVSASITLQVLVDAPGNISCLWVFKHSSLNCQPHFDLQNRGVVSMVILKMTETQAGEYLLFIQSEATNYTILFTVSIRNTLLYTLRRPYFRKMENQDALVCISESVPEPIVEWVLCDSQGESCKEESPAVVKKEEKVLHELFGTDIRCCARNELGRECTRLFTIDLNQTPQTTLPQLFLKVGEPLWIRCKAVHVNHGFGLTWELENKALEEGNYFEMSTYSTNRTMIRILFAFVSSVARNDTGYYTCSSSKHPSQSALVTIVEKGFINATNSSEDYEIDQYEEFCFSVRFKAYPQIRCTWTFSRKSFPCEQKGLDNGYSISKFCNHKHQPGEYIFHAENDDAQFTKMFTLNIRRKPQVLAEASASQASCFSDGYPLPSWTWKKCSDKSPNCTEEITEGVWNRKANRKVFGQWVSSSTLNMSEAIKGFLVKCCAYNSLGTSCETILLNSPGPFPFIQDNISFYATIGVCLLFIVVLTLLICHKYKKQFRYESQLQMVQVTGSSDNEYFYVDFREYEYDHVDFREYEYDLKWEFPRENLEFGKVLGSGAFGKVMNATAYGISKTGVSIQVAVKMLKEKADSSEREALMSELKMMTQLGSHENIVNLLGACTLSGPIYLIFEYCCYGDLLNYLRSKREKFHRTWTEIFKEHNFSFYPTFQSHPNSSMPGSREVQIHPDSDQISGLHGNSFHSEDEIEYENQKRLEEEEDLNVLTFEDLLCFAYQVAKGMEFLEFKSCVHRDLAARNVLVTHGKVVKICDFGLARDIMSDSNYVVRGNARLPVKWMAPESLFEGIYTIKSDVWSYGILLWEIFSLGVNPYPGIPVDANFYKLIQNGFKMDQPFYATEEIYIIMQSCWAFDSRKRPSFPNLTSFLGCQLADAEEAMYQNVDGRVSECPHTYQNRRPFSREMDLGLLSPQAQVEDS
Procedure for FLT3-ITD: In certain other embodiments, the compounds disclosed herein are tested in a FLT3 phosphorylation assay to determine their cellular potency against one or both of FLT3-ITD and FLT3 tyrosine kinase domain mutants. In certain embodiments, the FLT3 phosphorylation assay assesses the potency of compounds as FLT3 inhibitors by measuring the reduction in formation of phosphorylated FLT3 in the cells.
Gene constructs containing the human FLT3 sequences FLT3-ITD, FLT3-ITD-F691L, FLT3-ITD-D835V and FLT3-D835V were synthesized by reverse translation of the human protein sequences, with codons optimized for mammalian expression. Sequence of the internal tandem duplication (ITD) was based on the MV4-11 ITD sequence. […] Viruses were transduced into the IL-3-dependent, murine macrophage cell line, Ba/F3, and selected for puromycin resistance and IL-3 independence. All cell lines were cloned by limiting dilution and clones were used for all subsequent cell assays.
Briefly, cell lines were serum starved overnight in media containing 0.5% FBS. Cells were plated at 200,000 cells/well in 96-well round bottom plates in low serum, and 3-fold serial dilutions of test compounds were added for 2 hours at 37° C. […] After an overnight incubation at 4° C. shaking at 450 rpm, plates were washed with MSD wash buffer, and captured FLT3 was detected with biotinylated-anti-phosphotyrosine antibody 4G10 (Millipore) and SulfoTAG-streptavidin (MSD) for 1 hour at room temperature, and read on an MSD SECTOR Imager 6000. Percent remaining phospho-FLT3 in compound-treated cells was normalized to DMSO-treated cells, and IC50s were determined using Igor Pro software. All compounds are assayed in duplicate cell and MSD plates.

Turning to `COc1cc2nc(-c3ccc(CC(=O)Nc4cc(C(C)(C)C(F)(F)F)on4)c(F)c3)cnc2cc1OC1CNC1` [Example 148, 2-[4-[6-(azetidin-3-yloxy)-7-methoxy-quinoxalin-2-yl]-2-fluoro-phenyl]-N-[5-(2,2,2-trifluoro-1,1-dimethyl-ethyl)isoxazol-3-yl]acetamide], the IC50 (in general, the point on the concentration scale where inhibition reaches its midpoint) on FLT3-ITD is below 10 nM. Besides, the Kd (in general, the concentration at which binding is half-saturated) was 5 to 20 nM on KIT kinase and below 5 nM at FLT3 kinase.
As to `CCN1CC(Oc2cc3ncc(-c4ccc(CC(=O)Nc5cc(C(C)(C)C(F)(F)F)on5)c(F)c4)nc3cc2OC)C1` [Example 149, 2-[4-[6-(1-ethylazetidin-3-yl)oxy-7-methoxy-quinoxalin-2-yl]-2-fluoro-phenyl]-N-[5-(2,2,2-trifluoro-1,1-dimethyl-ethyl)isoxazol-3-yl]acetamide], the IC50 at FLT3-ITD is below 10 nM. For the same compound, the Kd at KIT kinase and on FLT3 kinase was below 5 nM each time.
Turning to `COc1cc2nc(-c3ccc(CC(=O)Nc4cc(C(C)(C)C(F)(F)F)on4)c(F)c3)cnc2cc1OC1CN(C)C1` [Example 150, 2-[2-fluoro-4-[7-methoxy-6-(1-methylazetidin-3-yl)oxy-quinoxalin-2-yl]phenyl]-N-[5-(2,2,2-trifluoro-1,1-dimethyl-ethyl)isoxazol-3-yl]acetamide], at FLT3-ITD, the IC50 is below 10 nM. Also, the Kd on KIT kinase and at FLT3 kinase was below 5 nM throughout.
As to `CC(C)(c1cc(NC(=O)Cc2ccc(-c3cnc4c(N)cccc4c3)cc2F)no1)C(F)(F)F` [Example 151, 2-[4-(8-amino-3-quinolyl)-2-fluoro-phenyl]-N-[5-(2,2,2-trifluoro-1,1-dimethyl-ethyl)isoxazol-3-yl]acetamide], at FLT3-ITD, the IC50 is below 10 nM. In addition, the Kd on KIT kinase and at FLT3 kinase was below 5 nM each time.
In the case of `COc1cc2nc(O)c(-c3ccc(CC(=O)Nc4cc(C5(C(F)(F)F)CC5)on4)c(F)c3)nc2cc1OC` [Example 152, 2-[4-(6,7-dimethoxy-3-hydroxy-quinoxalin-2-yl)-2-fluoro-phenyl]-N-[5-[1-(trifluoromethyl)cyclo-propyl]isoxazol-3-yl]acetamide], the IC50 on FLT3-ITD is below 10 nM. Besides, the Kd at KIT kinase and at FLT3 kinase was below 5 nM throughout.
As for `COc1cc2ncc(-c3ccc(CC(=O)Nc4cc(C(C)(C)C)n[nH]4)c(F)c3)nc2cc1OC` [Example 153, N-(3-tert-butyl-1H-pyrazol-5-yl)-2-[4-(6,7-dimethoxyquinoxalin-2-yl)-2-fluoro-phenyl]acetamide], at FLT3-ITD, the IC50 was below 10 nM. Further, the Kd at KIT kinase and at FLT3 kinase was below 5 nM throughout.
As for `CN(C)C(=O)COc1cc2ncc(-c3ccc(CC(=O)Nc4cc(C5(C(F)(F)F)CC5)on4)c(F)c3)nc2cc1OCC(=O)N(C)C` [Example 154, 2-[4-[6,7-bis[2-(dimethylamino)-2-oxo-ethoxy]quinoxalin-2-yl]-2-fluoro-phenyl]-N-[5-[1-(trifluoromethyl)cyclo-propyl]isoxazol-3-yl]acetamide], the IC50 at FLT3-ITD was below 10 nM. The Kd on KIT kinase and on FLT3 kinase was below 5 nM each time.
In the case of `COc1ccc2ncc(-c3ccc(CC(=O)Nc4cc(C5(C(F)(F)F)CC5)on4)c(F)c3)nc2n1` [Example 155, 2-[2-fluoro-4-(6-methoxypyrido[2,3-b]pyrazin-3-yl)phenyl]-N-[5-[1-(trifluoromethyl)cyclo-propyl]isoxazol-3-yl]acetamide OR 2-[2-fluoro-4-(6-methoxypyrido[2,3-b]pyrazin-2-yl)phenyl]-N-[5-[1-(trifluoromethyl)cyclo-propyl]isoxazol-3-yl]acetamide], the IC50 on FLT3-ITD was below 10 nM. Also, the Kd on KIT kinase is 5 to 20 nM; on FLT3 kinase, below 5 nM.
For the compound `COc1cc2ncc(-c3ccc(CC(=O)Nc4cc(C5(C(F)(F)F)CC5)on4)c(F)c3)nc2cc1OCc1ccccc1` [Example 156, 2-[4-(7-benzyloxy-6-methoxy-quinoxalin-2-yl)-2-fluoro-phenyl]-N-[5-[1-(trifluoromethyl)cyclo-propyl]isoxazol-3-yl]acetamide], at FLT3-ITD, the IC50 was below 10 nM. The Kd at KIT kinase and on FLT3 kinase was above 50 nM in each case.
Consider `COc1cc2ncc(-c3ccc(CC(=O)Nc4cc(C5(C(F)(F)F)CC5)on4)c(F)c3)nc2cc1O` [Example 157, 2-[2-fluoro-4-(7-hydroxy-6-methoxy-quinoxalin-2-yl)phenyl]-N-[5-[1-(trifluoro-methyl)cyclopropyl]isoxazol-3-yl]acetamide], for which the IC50 on FLT3-ITD was below 10 nM. Moreover, the Kd on KIT kinase and on FLT3 kinase was below 5 nM in each case.
For the compound `COc1cc2ncc(-c3ccc(CC(=O)Nc4cc(C5(C(F)(F)F)CC5)on4)c(F)c3)nc2cc1OCCN(C)C` [Example 158, 2-[4-[7-[2-(dimethylamino)ethoxy]-6-methoxy-quinoxalin-2-yl]-2-fluoro-phenyl]-N-[5-[1-(trifluoromethyl)cyclo-propyl]isoxazol-3-yl]acetamide], the IC50 at FLT3-ITD is below 10 nM. Also, the Kd on KIT kinase and on FLT3 kinase was below 5 nM throughout.
In the case of `COCCOc1cc2ncc(-c3ccc(CC(=O)Nc4cc(C(C)(C)C(F)(F)F)on4)c(F)c3)nc2cc1OC` [Example 159, 2-[2-fluoro-4-[7-methoxy-6-(2-methoxy-ethoxy)quinoxalin-2-yl]phenyl]-N-[5-(2,2,2-trifluoro-1,1-dimethyl-ethyl)isoxazol-3-yl]acetamide], the IC50 on FLT3-ITD is below 10 nM. The Kd on KIT kinase and at FLT3 kinase was below 5 nM in each case.
With `COCCOc1cc2nc(-c3ccc(CC(=O)Nc4cc(C(C)(C)C(F)(F)F)on4)c(F)c3)cnc2cc1OC` [Example 160, 2-[2-fluoro-4-[6-methoxy-7-(2-methoxy-ethoxy)quinoxalin-2-yl]phenyl]-N-[5-(2,2,2-trifluoro-1,1-dimethyl-ethyl)isoxazol-3-yl]acetamide], the IC50 on FLT3-ITD is below 10 nM. Moreover, the Kd at KIT kinase and on FLT3 kinase was below 5 nM in each case.
Consider `COCCOc1cc2nc(-c3ccc(CC(=O)Nc4cc(C(C)(C)C)nn4C)c(F)c3)cnc2cc1OC` [Example 161, N-(5-tert-butyl-2-methyl-pyrazol-3-yl)-2-[2-fluoro-4-[6-methoxy-7-(2-methoxyethoxy)quinoxalin-2-yl]phenyl]acetamide], for which, at FLT3-ITD, the IC50 was below 10 nM. In addition, the Kd at KIT kinase and at FLT3 kinase was below 5 nM throughout.
On to `COCCOc1cc2ncc(-c3ccc(CC(=O)Nc4cc(C(C)(C)C)nn4C)c(F)c3)nc2cc1OC` [Example 162, N-(5-tert-butyl-2-methyl-pyrazol-3-yl)-2-[2-fluoro-4-[7-methoxy-6-(2-methoxyethoxy)quinoxalin-2-yl]phenyl]acetamide], for which, at FLT3-ITD, the IC50 was below 10 nM. Besides, the Kd at KIT kinase and on FLT3 kinase was below 5 nM throughout.
`COc1cc2nc(-c3ccc(CC(=O)Nc4cc(C5(C(F)(F)F)CC5)on4)c(F)c3)cnc2cc1OCc1ccccc1` [Example 163, 2-[4-(6-benzyloxy-7-methoxy-quinoxalin-2-yl)-2-fluoro-phenyl]-N-[5-[1-(trifluoromethyl)cyclo-propyl]isoxazol-3-yl]acetamide]: at FLT3-ITD, the half-maximal inhibitory concentration (IC50) is below 10 nM. The Kd at KIT kinase and at FLT3 kinase was above 50 nM each time.
For `COc1cc2nc(-c3ccc(CC(=O)Nc4cc(C(C)(C)C(F)(F)F)on4)c(F)c3)cnc2cc1O` [Example 164, 2-[2-fluoro-4-(6-hydroxy-7-methoxy-quinoxalin-2-yl)phenyl]-N-[5-(2,2,2-trifluoro-1,1-dimethyl-ethyl)isoxazol-3-yl]acetamide], on FLT3-ITD, the IC50 is below 10 nM. The results for the Kd on KIT kinase and on FLT3 kinase were 5 to 20 nM and below 5 nM, respectively.
For the compound `COc1cc2nc(-c3ccc(CC(=O)Nc4cc(C(C)(C)C(F)(F)F)on4)c(F)c3)cnc2cc1OCCO` [Example 165, 2-[2-fluoro-4-[6-(2-hydroxyethoxy)-7-methoxy-quinoxalin-2-yl]phenyl]-N-[5-(2,2,2-trifluoro-1,1-dimethyl-ethyl)isoxazol-3-yl]acetamide], on FLT3-ITD, the half-inhibitory concentration (IC50) was below 10 nM. For the same compound, the Kd at KIT kinase and at FLT3 kinase was below 5 nM throughout.
Take `COc1cc2nc(-c3ccc(CC(=O)Nc4cc(C5(C(F)(F)F)CC5)on4)c(F)c3)cnc2cc1OCCN=[N+]=[N-]` [Example 166, 2-[4-[6-(2-azidoethoxy)-7-methoxy-quinoxalin-2-yl]-2-fluoro-phenyl]-N-[5-[1-(trifluoromethyl)cyclo-propyl]isoxazol-3-yl]acetamide]: the IC50 on FLT3-ITD is below 10 nM. The Kd on KIT kinase and on FLT3 kinase was below 5 nM in each case.
With `COc1cc2nc(-c3ccc(CC(=O)Nc4cc(C5(C(F)(F)F)CC5)on4)c(F)c3)cnc2cc1OCCN` [Example 167, 2-[4-[6-(2-aminoethoxy)-7-methoxy-quinoxalin-2-yl]-2-fluoro-phenyl]-N-[5-[1-(trifluoromethyl)cyclo-propyl]isoxazol-3-yl]acetamide], the IC50 at FLT3-ITD was below 10 nM. Further, the Kd at KIT kinase and at FLT3 kinase was below 5 nM throughout.
Take `COc1cc2nc(-c3ccc(CC(=O)Nc4cc(C5(C(F)(F)F)CC5)on4)c(F)c3)cnc2cc1OCCNC(C)=O` [Example 168, 2-[4-[6-(2-acetamidoethoxy)-7-methoxy-quinoxalin-2-yl]-2-fluoro-phenyl]-N-[5-[1-(trifluoromethyl)cyclo-propyl]isoxazol-3-yl]acetamide]: the IC50 on FLT3-ITD is below 10 nM. For the same compound, the Kd at KIT kinase and at FLT3 kinase was below 5 nM throughout.
On to `COc1cc2nc(C)c(-c3ccc(CC(=O)Nc4cc(C5(C(F)(F)F)CC5)on4)c(F)c3)nc2cc1OC` [Example 169, 2-[4-(6,7-dimethoxy-3-methyl-quinoxalin-2-yl)-2-fluoro-phenyl]-N-[5-[1-(trifluoromethyl)cyclo-propyl]isoxazol-3-yl]acetamide], for which, at FLT3-ITD, the IC50 is below 10 nM. Further, the Kd on KIT kinase and on FLT3 kinase was below 5 nM in each case.
